Test results published in patent publication US20240376163A1, “PEPTIDE FOR INHIBITING CALCINEURIN AND USE THEREOF” (Seoul National University R&DB Foundation, priority 2023, published 2024).

Test system: Jurkat T cells
Test: mRNA sequencing of activated Jurkat T cells
Type: cell-based, human

`C=CC[C@@H]1/C=C(\C)C[C@H](C)C[C@H](OC)[C@H]2O[C@@](O)(C(=O)C(=O)N3CCCC[C@H]3C(=O)O[C@H](/C(C)=C/[C@@H]3CC[C@@H](O)[C@H](OC)C3)[C@H](C)[C@@H](O)CC1=O)[C@H](C)C[C@@H]2OC` [FK506, Tacrolimus, reference compound] was tested, and the “CRIM1 FPKM” value (P + I) was 0.305 FPKM, the “CRTAM FPKM” value (P + I) was 3.325 FPKM and the “CSF1 FPKM” value (P + I) was 1.706 FPKM. For the same molecule, the “CSF2 FPKM” value (P + I) was 0 FPKM, the “CST7 FPKM” value (P + I) was 2.338 FPKM and the “CXCL8 FPKM” value (P + I) was 0.937 FPKM. The “CXCR3 FPKM” value (P + I) was 0.503 FPKM, the “DSTYK FPKM” value (P + I) was 3.501 FPKM and the “FBXO34 FPKM” value (P + I) was 14.612 FPKM. For the same molecule, the “FMNL2 FPKM” value (P + I) was 2.726 FPKM, the “FOSL2 FPKM” value (P + I) was 2.204 FPKM and the “FOXO1 FPKM” value (P + I) was 1.77 FPKM. For the same molecule, the “FXYD5 FPKM” value (P + I) was 41.346 FPKM, the “FYN FPKM” value (P + I) was 16.523 FPKM and the “GFOD1 FPKM” value (P + I) was 4.187 FPKM. The “GRK5 FPKM” value (P + I) was 8.481 FPKM, the “GTDC1 FPKM” value (P + I) was 4.629 FPKM and the “IL2 FPKM” value (P + I) was 0.287 FPKM. For the same molecule, the “IL3 FPKM” value (P + I) was 0.062 FPKM, the “IL21R FPKM” value (P + I) was 2.244 FPKM and the “IL21R-AS1 FPKM” value (P + I) was 1.927 FPKM. The “IQCJ-SCHIP1 FPKM” value (P + I) was 1.657 FPKM, the “IRF4 FPKM” value (P + I) was 0.423 FPKM and the “IRF8 FPKM” value (P + I) was 1.19 FPKM. For the same molecule, the “ISM1 FPKM” value (P + I) was 0.726 FPKM, the “JAK2 FPKM” value (P + I) was 5.248 FPKM and the “KCNK1 FPKM” value (P + I) was 10.967 FPKM. The “KCNK5 FPKM” value (P + I) was 3.906 FPKM, the “LAMP3 FPKM” value (P + I) was 6.412 FPKM and the “LAX1 FPKM” value (P + I) was 8.052 FPKM. The “LIF FPKM” value (P + I) was 0.143 FPKM, the “LOC729603 FPKM” value (P + I) was 2.179 FPKM and the “LRRC8B FPKM” value (P + I) was 3.555 FPKM. For the same molecule, the “LTBP4 FPKM” value (P + I) was 8.427 FPKM, the “MAP2K3 FPKM” value (P + I) was 41.815 FPKM and the “MIR6775 FPKM” value (P + I) was 19.643 FPKM. For the same molecule, the “MIR6821 FPKM” value (P + I) was 13.626 FPKM, the “MYO1D FPKM” value (P + I) was 4.59 FPKM and the “NDFIP1 FPKM” value (P + I) was 22.485 FPKM. The “NFATC1 FPKM” value (P + I) was 3.793 FPKM, the “NPDC1 FPKM” value (P + I) was 4.328 FPKM and the “NR4A2 FPKM” value (P + I) was 0.04 FPKM. The “NTRK1 FPKM” value (P + I) was 0.836 FPKM, the “PAM FPKM” value (P + I) was 1.483 FPKM and the “PDGFA FPKM” value (P + I) was 3.25 FPKM. The “PELI1 FPKM” value (P + I) was 8.175 FPKM, the “PHACTR2 FPKM” value (P + I) was 2.927 FPKM and the “PHEX FPKM” value (P + I) was 0.213 FPKM. For the same molecule, the “PIM3 FPKM” value (P + I) was 42.827 FPKM, the “PKIA FPKM” value (P + I) was 13.962 FPKM and the “PLK3 FPKM” value (P + I) was 5.257 FPKM. The “PLS3 FPKM” value (P + I) was 0.052 FPKM, the “POU2AF1 FPKM” value (P + I) was 2.274 FPKM and the “PPIF FPKM” value (P + I) was 50.291 FPKM. For the same molecule, the “PTPN6 FPKM” value (P + I) was 20.906 FPKM, the “PTPN22 FPKM” value (P + I) was 6.37 FPKM and the “RDH10 FPKM” value (P + I) was 5.856 FPKM. For the same molecule, the “REL FPKM” value (P + I) was 4.749 FPKM, the “RGS16 FPKM” value (P + I) was 1.172 FPKM and the “SCHIP1 FPKM” value (P + I) was 1.535 FPKM. The “SERPINB2 FPKM” value (P + I) was 2.905 FPKM, the “SHC4 FPKM” value (P + I) was 0.663 FPKM and the “SLAMF1 FPKM” value (P + I) was 0.217 FPKM. The “SLC35E4 FPKM” value (P + I) was 0.952 FPKM, the “SORBS1 FPKM” value (P + I) was 0.4 FPKM and the “SPRY1 FPKM” value (P + I) was 4.074 FPKM. For the same molecule, the “STAT5A FPKM” value (P + I) was 3.347 FPKM, the “TAGAP FPKM” value (P + I) was 4.352 FPKM and the “TBC1D4 FPKM” value (P + I) was 12.549 FPKM. For the same molecule, the “TBC1D20 FPKM” value (P + I) was 17.7 FPKM, the “TDRD9 FPKM” value (P + I) was 1.245 FPKM and the “TIAM2 FPKM” value (P + I) was 0.27 FPKM. The “TM4SF1 FPKM” value (P + I) was 0.439 FPKM, the “TNFRSF4 FPKM” value (P + I) was 2.933 FPKM and the “TNFSF9 FPKM” value (P + I) was 2.568 FPKM. The “TNFSF14 FPKM” value (P + I) was 1.023 FPKM, the “TNS3 FPKM” value (P + I) was 0.678 FPKM and the “VAMP1 FPKM” value (P + I) was 14.793 FPKM. For the same molecule, the “XCL1 FPKM” value (P + I) was 0 FPKM, the “XCL2 FPKM” value (P + I) was 0 FPKM and the “ZNF704 FPKM” value (P + I) was 0.014 FPKM. The “ZNF827 FPKM” value (P + I) was 1.521 FPKM, the “ABCB10 FPKM” value (P+I) was 10.164 FPKM and the “ACTG1 FPKM” value (P+I) was 1002.221 FPKM. The “ADAM19 FPKM” value (P+I) was 5.532 FPKM, the “ADD3 FPKM” value (P+I) was 13.6 FPKM and the “ADORA2B FPKM” value (P+I) was 8.219 FPKM. The “AGO2 FPKM” value (P+I) was 13.242 FPKM, the “AIM1 FPKM” value (P+I) was 37.047 FPKM and the “APOBEC3A_B FPKM” value (P+I) was 10.242 FPKM. For the same molecule, the “APOBEC3B FPKM” value (P+I) was 41.16 FPKM, the “APOBEC3C FPKM” value (P+I) was 16.851 FPKM and the “APOBEC3D FPKM” value (P+I) was 10.187 FPKM. For the same molecule, the “APOL2 FPKM” value (P+I) was 89.267 FPKM, the “APOL6 FPKM” value (P+I) was 46.937 FPKM and the “AQP3 FPKM” value (P+I) was 66.037 FPKM. The “ARAP2 FPKM” value (P+I) was 15.321 FPKM, the “ARC FPKM” value (P+I) was 9.966 FPKM and the “ARHGAP23 FPKM” value (P+I) was 2.576 FPKM.
